Assay results taken from patent US20240384268A1, “Oligonucleotides” (Hudson Institute of Medical Research, priority 2021, published 2024).
In the oligonucleotide strings, read from the 5' end, every base follows the letter of its sugar. An asterisk marks phosphorothioate; unmarked linkages are phosphodiester. Other units and linkages are bracketed, terminal groups are in braces. A string of capitals states the bases alone. d = 2'-deoxy (DNA); m = 2'-O-methyl

biological target: T1, TLR8 (Homo sapiens, UniProt Q9NR97); assay: HEK-TLR8 NF-κB-luciferase reporter, R848 or Motolimod stimulation (potentiation or inhibition); format: cell-based; set-up: expressed in transfected cells; host or cells: 293XLhTLR8 (HEK293); conditions: HEK-TLR8; 500 nM ASO; fold increase relative to R848 without ASO (Alharbi et al., 2020)
T1 sequence (Q9NR97 27-1041): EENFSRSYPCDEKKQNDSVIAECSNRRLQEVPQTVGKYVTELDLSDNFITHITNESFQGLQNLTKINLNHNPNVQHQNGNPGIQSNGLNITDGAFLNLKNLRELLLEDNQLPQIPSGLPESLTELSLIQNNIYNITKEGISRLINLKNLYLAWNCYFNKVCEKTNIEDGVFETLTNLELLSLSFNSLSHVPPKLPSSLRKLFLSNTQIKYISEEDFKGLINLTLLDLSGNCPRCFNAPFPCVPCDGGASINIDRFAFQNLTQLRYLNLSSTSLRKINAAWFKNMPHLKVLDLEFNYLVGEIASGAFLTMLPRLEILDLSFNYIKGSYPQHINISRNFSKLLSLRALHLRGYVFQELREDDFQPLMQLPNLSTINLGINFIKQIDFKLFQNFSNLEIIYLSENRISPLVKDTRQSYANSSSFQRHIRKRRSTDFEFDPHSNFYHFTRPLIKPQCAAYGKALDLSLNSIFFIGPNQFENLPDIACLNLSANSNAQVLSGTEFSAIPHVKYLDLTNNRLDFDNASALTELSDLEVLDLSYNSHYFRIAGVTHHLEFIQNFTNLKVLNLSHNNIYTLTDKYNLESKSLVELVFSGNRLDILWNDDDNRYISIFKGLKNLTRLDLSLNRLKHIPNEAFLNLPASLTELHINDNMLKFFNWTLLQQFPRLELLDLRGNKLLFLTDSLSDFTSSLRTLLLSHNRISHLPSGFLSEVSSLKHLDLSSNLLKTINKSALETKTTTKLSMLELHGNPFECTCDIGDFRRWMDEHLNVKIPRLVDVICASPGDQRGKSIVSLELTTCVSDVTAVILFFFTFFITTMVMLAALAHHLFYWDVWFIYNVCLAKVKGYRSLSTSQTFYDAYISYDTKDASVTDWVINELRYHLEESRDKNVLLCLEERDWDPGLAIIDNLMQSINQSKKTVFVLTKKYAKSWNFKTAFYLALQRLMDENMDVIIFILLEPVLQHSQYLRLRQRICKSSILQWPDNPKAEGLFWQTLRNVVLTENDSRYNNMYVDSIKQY

Row | Substance | TLR8-500 nM: averaged NF-κB-Luciferase relative to R848
1 | mC*mA*mA*mG*mC*C*C*C*A*G*C*G*T*T*C*mC*mU*mC*mC*mG (mC*mA*mA*mG*mC*dC*dC*dC*dA*dG*dC*dG*dT*dT*dC*mC*mU*mC*mC*mG; antisense) [[LINC-PINT]83.1] | 4.44 fold
2 | mC*mA*mC*mC*mC*T*T*C*T*C*T*C*T*G*G*mU*mC*mC*mC*mA (CACCCTTCTCTCTGGUCCCA; antisense; sugars from the 5' end m5 d10 m5, all phosphorothioate, methylation of C not given here) [[LINC-PINT]116] | 5.97 fold
3 | mC*mA*mC*mU*mG*T*A*T*T*T*T*A*T*T*A*mC*mA*mG*mA*mA (mC*mA*mC*mU*mG*dT*dA*dT*dT*dT*dT*dA*dT*dT*dA*mC*mA*mG*mA*mA; antisense) [[LINC-PINT]2990] | 4.86 fold
4 | mC*mA*mG*mG*mC*C*T*C*C*A*G*T*G*T*C*mU*mU*mC*mU*mC (mC*mA*mG*mG*mC*dC*dT*dC*dC*dA*dG*dT*dG*dT*dC*mU*mU*mC*mU*mC; antisense) [[CDKN2B-AS1]2219] | 3.89 fold
5 | mC*mA*mU*mC*mC*C*T*T*C*T*G*C*T*G*C*mC*mA*mA*mG*mC (mC*mA*mU*mC*mC*dC*dT*dT*dC*dT*dG*dC*dT*dG*dC*mC*mA*mA*mG*mC; antisense) [[LINC-PINT]98] | 8.23 fold
6 | mC*mC*mA*mU*mC*C*C*T*T*C*T*G*C*T*G*mC*mC*mA*mA*mG (mC*mC*mA*mU*mC*dC*dC*dT*dT*dC*dT*dG*dC*dT*dG*mC*mC*mA*mA*mG; antisense) [ILING-PINT199] | 5.67 fold
7 | mC*mC*mA*mU*mG*T*C*C*C*A*G*G*C*C*T*mC*mC*mA*mG*mU (CCAUGTCCCAGGCCTCCAGU; sugars from the 5' end m5 d10 m5, all phosphorothioate, methylation of C not given here) [[CDKN2B-AS1]2227] | 1.46 fold
8 | mC*mC*mC*mU*mA*A*T*G*C*T*T*T*C*C*T*mC*mU*mC*mC*mA (mC*mC*mC*mU*mA*dA*dT*dG*dC*dT*dT*dT*dC*dC*dT*mC*mU*mC*mC*mA; antisense) [[LINC-PINT1877 KL] | 8.39 fold
9 | mC*mC*mC*mU*mU*C*T*C*T*C*T*G*G*T*C*mC*mC*mA*mU*mC (mC*mC*mC*mU*mU*dC*dT*dC*dT*dC*dT*dG*dG*dT*dC*mC*mC*mA*mU*mC; antisense) [[LINC-PINT]114] | 8.12 fold
10 | mC*mC*mU*mA*mG*A*A*A*G*A*A*G*C*A*A*mA*mG*mA*mU*mU (mC*mC*mU*mA*mG*dA*dA*dA*dG*dA*dA*dG*dC*dA*dA*mA*mG*mA*mU*mU) [[CDKN2B-AS1]1522] | 4.94 fold
11 | mC*mC*mU*mU*mC*T*C*T*C*T*G*GT*C*C*mC*mA*mU*mC*mC (CCUUCTCTCTGGTCCCAUCC; antisense; chemistry not fully specified) [[LINC-PINT]113] | 3.51 fold
12 | mC*mC*mU*mU*mC*T*G*C*T*G*C*C*A*A*G*mC*mC*mC*mC*mA (mC*mC*mU*mU*mC*dT*dG*dC*dT*dG*dC*dC*dA*dA*dG*mC*mC*mC*mC*mA; antisense) [[LINC-PINT]94] | 3.71 fold
13 | mC*mU*mC*mU*mC*T*G*G*T*C*C*C*A*T*C*mC*mC*mU*mU*mC (mC*mU*mC*mU*mC*dT*dG*dG*dT*dC*dC*dC*dA*dT*dC*mC*mC*mU*mU*mC; antisense) [[LINC-PINT]109] | 10.10 fold
14 | mC*mU*mU*mC*mU*C*T*C*T*G*G*T*C*C*C*mA*mU*mC*mC*mC (mC*mU*mU*mC*mU*dC*dT*dC*dT*dG*dG*dT*dC*dC*dC*mA*mU*mC*mC*mC) [[LINC-PINT]112] | 9.21 fold
15 | mC*mU*mU*mU*mA*T*A*T*T*A*C*A*A*A*G*mC*mU*mA*mC*mU (mC*mU*mU*mU*mA*dT*dA*dT*dT*dA*dC*dA*dA*dA*dG*mC*mU*mA*mC*mU; antisense) [[LINC-PINT]2755] | 6.37 fold
16 | mG*mA*mA*mA*mA*G*A*T*T*A*T*C*T*T*C*mU*mU*mU*mU*mA (GAAAAGATTATCTTCUUUUA; sugars from the 5' end m5 d10 m5, all phosphorothioate, methylation of C not given here) [[CDKN2B-AS1]2134] | 1.87 fold
17 | mG*mA*mU*mG*mG*T*T*C*C*A*G*T*C*C*C*mU*mC*mU*mU*mC (GAUGGTTCCAGTCCCUCUUC; antisense; sugars from the 5' end m5 d10 m5, all phosphorothioate, methylation of C not given here) [[LINC-PINT]1497.1] | 1.01 fold
18 | mG*mA*mU*mU*mA*A*A*A*C*A*G*A*T*T*A*mA*mU*mA*mC*mA (mG*mA*mU*mU*mA*dA*dA*dA*dC*dA*dG*dA*dT*dT*dA*mA*mU*mA*mC*mA) [[CDKN2B-AS1]1773] | 1.48 fold
19 | mG*mC*mA*mA*mG*G*C*A*G*A*G*A*A*A*C*mU*mC*mC*mA*mG (GCAAGGCAGAGAAACUCCAG; sugars from the 5' end m5 d10 m5, all phosphorothioate, methylation of C not given here) [[LINC-PINT]1315 KL] | 2.69 fold
20 | mG*mC*mG*mU*mA*G*T*T*T*C*T*C*T*T*C*mC*mU*mC*mC*mC (GCGUAGTTTCTCTTCCUCCC; sugars from the 5' end m5 d10 m5, all phosphorothioate, methylation of C not given here) [[LINC-PINT]935 KL] | 4.12 fold
21 | mG*mG*mA*mU*mU*A*A*A*A*C*A*G*A*T*T*mA*mA*mU*mA*mC (GGAUUAAAACAGATTAAUAC; sugars from the 5' end m5 d10 m5, all phosphorothioate, methylation of C not given here) [[CDKN2B-AS1]1774] | 1.67 fold
22 | mG*mG*mG*mU*mC*T*C*C*T*C*C*A*C*A*C*mC*mC*mU*mU*mC (GGGUCTCCTCCACACCCUUC; antisense; sugars from the 5' end m5 d10 m5, all phosphorothioate, methylation of C not given here) [[LINC-PINT]128] | 1.23 fold
23 | mG*mG*mU*mC*mC*C*A*T*C*C*C*T*T*C*T*mG*mC*mU*mG*mC (GGUCCCATCCCTTCTGCUGC; sugars from the 5' end m5 d10 m5, all phosphorothioate, methylation of C not given here) [[LINC-PINT]103] | 1.87 fold
24 | mG*mG*mU*mC*mU*C*C*T*C*C*A*C*A*C*C*mC*mU*mU*mC*mU (mG*mG*mU*mC*mU*dC*dC*dT*dC*dC*dA*dC*dA*dC*dC*mC*mU*mU*mC*mU; antisense) [[LINC-PINT]127] | 3.72 fold
25 | mG*mG*mU*mG*mG*C*C*A*C*A*G*G*C*A*A*mC*mG*mU*mC*mA (GGUGGCCACAGGCAACGUCA; antisense; sugars from the 5' end m5 d10 m5, all phosphorothioate, methylation of C not given here) [[CDKN2B-AS1]2196] | 0.98 fold
26 | mG*mU*mC*mA*mA*A*C*C*T*A*G*A*A*A*G*mA*mA*mG*mC*mA (mG*mU*mC*mA*mA*dA*dC*dC*dT*dA*dG*dA*dA*dA*dG*mA*mA*mG*mC*mA; antisense) [[CDKN2B-AS1]1528] | 1.85 fold
27 | mG*mU*mC*mC*mC*A*G*G*C*C*T*C*C*A*G*mU*mG*mU*mC*mU (mG*mU*mC*mC*mC*dA*dG*dG*dC*dC*dT*dC*dC*dA*dG*mU*mG*mU*mC*mU; antisense) [[CDKN2B-AS1]2223] | 2.17 fold
28 | mG*mU*mC*mC*mC*A*T*C*C*C*T*T*C*T*G*mC*mU*mG*mC*mC (GUCCCATCCCTTCTGCUGCC; antisense; sugars from the 5' end m5 d10 m5, all phosphorothioate, methylation of C not given here) [[LINC-PINT]102] | 5.07 fold
29 | mG*mU*mC*mC*mG*T*A*C*C*T*C*C*A*C*C*mC″mA*mC*mC*mG [[LINC-PINT]727.1] | 3.70 fold
30 | mG*mU*mC*mU*mC*C*T*C*C*A*C*A*C*C*C*mU*mU*mC*mU*mC (mG*mU*mC*mU*mC*dC*dT*dC*dC*dA*dC*dA*dC*dC*dC*mU*mU*mC*mU*mC; antisense) [[LINC-PINT]126] | 7.17 fold
